In patent US6605635B1, “N-substituted benzyl or phenyl aromatic sulfamides compounds and the use thereof” (Shanghai Institute of Materia Medica Chinese Academy of …, priority 1999, dated 2003):

Experiments:
[1] = tested on: rat aconitine-induced arrhythmia; assay type: in vivo, rats; conditions: hydrochloride salts; for Prophylactic inde: ratio LD50:ED50, rats; for Therapeutic ind: ratio LD50:ED, rats
[2] = tested on: acute myocardial ischemia induced arrhythmia; assay: acute myocardial ischemia induced arrhythmia model (coronary artery ligation) in anesthetized rats; assay type: in vivo
Source text: 1. An acute myocardial ischemia induced arrhythmia model was obtained by conducting chest opening to expose the heart and […] of the anterior descending branch of the coronary artery in anesthetized rats (“Methods in Pharmacological Experiments”, Second Edition, p. 1022, People's Medical Publishing House, Beijing, 1991).

[3] = tested on: beiwutine induced rat arrhythmia; assay: beiwutine induced rat arrhythmia model; assay type: in vivo
[4] = tested on: ouabain induced guinea pig arrhythmia; assay: ouabain induced guinea pig arrhythmia model; assay type: in vivo
arrhythmia patients = conditions: cited from earlier work

| Compound | Prophylactic inde [1] | Therapeutic ind [1] | also measured |
| --- | --- | --- | --- |
| N-[3,5-bis(1 -Pyrrolidinomethyl)-4-hydroxyl]benzyl-4-chlorobenzenesulfonamide [Compound B-87829] | 55 | 8.6 | – |
| Oc1c(CN2CCCC2)cc(Nc2ncnc3ccccc23)cc1CN1CCCC1 [changrolin] | – | – | inhibition of the incidence of ventrical premature beats [2]: 50%; ED50 [3]: 3 mg/kg; amount of ouabain used for inducing ventrical premature beats, ventricular tachycardia and ventricular fibrillation [4]: significantly increase; ventricular premature beats (arrhythmia patients; 2-3 days after oral administration, patients suffering from arrhythmia): disappear; ventricular premature beats and ventricular tachycardia (arrhythmia patients; i.v. injection or instillation, patients): significant reduction or even disappearence; skin side effect (arrhythmia patients; oral administration for over one month, patients, retrogresses after ceasing administration): reversible pigmentation on the skin |
| N-[3,5-bis(1-Pyrrolidinomethyl)-4-hydroxy]phenyl-4-chlorobenzenesulfonamide [Compound B-86810] | 5.3 | – | – |
| N-[3,5-bis(1-Pyrrolidinomethyl)-4-hydroxy]phenyl-N-methyl-4-acetamidobenzenesulfonamide [Compound B-87827] | 3.0 | 2 | – |
| O=S(=O)(Nc1cc(CN2CCCCC2)c(O)c(CN2CCCCC2)c1)c1cccc2ccccc12 [Compound B-87836, N-[3,5-bis(1-Piperidinomethyl)-4-hydroxy]phenyl-1-naphthalenesulfonamide] | 33.5 | 9.7 | – |
| N-[3,5-bis(1-Pyrrolidinomethyl)-4-hydroxy]phenyl-N-ethyl-4-toluenesulfonamide [Compound B-86809] | 1.1 | 4.0 | – |
